Reference: ChEMBL document CHEMBL5030517, “6-Halopyridylmethylidene Penicillin-Based Sulfones Efficiently Inactivate the Natural Resistance of Pseudomonas aeruginosa to β-Lactam Antibiotics” (J Med Chem, 2021)
Converted amounts (≈) assume the structure as drawn.

Assays:
Format in all cases: functional
Pseudomonas aeruginosa [1] = test: Antibacterial activity against Pseudomonas aeruginosa PAO1 PAHUAC-14 (ST-966) by broth microdilution method
Pseudomonas aeruginosa [2] = test: Antibacterial activity against Pseudomonas aeruginosa PAO1 deltadacB by broth microdilution method
Pseudomonas aeruginosa [3] = test: Antibacterial activity against Pseudomonas aeruginosa PAO1 deltaC+pUCP-(PDC-5) by broth microdilution method
Pseudomonas aeruginosa [4] = test: Antipseudomonal activity against pseudomonas aeruginosa Pseudomonas aeruginosa 53/22-113 (ST-244) assessed as AmpC RNA level relative to Pseudomonas aeruginosa PAO1
Pseudomonas aeruginosa [5] = test: Antipseudomonal activity against pseudomonas aeruginosa Pseudomonas aeruginosa 17/14-017 (ST-235) assessed as AmpC RNA level relative to Pseudomonas aeruginosa PAO1
Pseudomonas aeruginosa [6] = test: Antipseudomonal activity against pseudomonas aeruginosa PAOdeltaC+pUCP-(PDC-5) assessed as AmpC RNA level relative to Pseudomonas aeruginosa PAO1
Pseudomonas aeruginosa [7] = test: Antipseudomonal activity against pseudomonas aeruginosa PAOdeltaampD AmpC RNA level assessed as AmpC RNA level relative to Pseudomonas aeruginosa PAO1
Pseudomonas aeruginosa [8] = test: Antibacterial activity against Pseudomonas aeruginosa PAO1 13/09-018 (ST-175) by broth microdilution method
Pseudomonas aeruginosa [9] = test: Antipseudomonal activity against pseudomonas aeruginosa Pseudomonas aeruginosa 36/14-210 (ST-235) assessed as AmpC RNA level relative to Pseudomonas aeruginosa PAO1
Pseudomonas aeruginosa [10] = test: Antipseudomonal activity against pseudomonas aeruginosa PAOdeltaC+pUCP-(PDC-1) assessed as AmpC RNA level relative to Pseudomonas aeruginosa PAO1
Pseudomonas aeruginosa [11] = test: Antipseudomonal activity against pseudomonas aeruginosa Pseudomonas aeruginosa PAHUAC-14 (ST-966) assessed as AmpC RNA level relative to Pseudomonas aeruginosa PAO1
Pseudomonas aeruginosa [12] = test: Antibacterial activity against Pseudomonas aeruginosa PAO1 deltadacBdeltadacC by broth microdilution method
Pseudomonas aeruginosa [13] = test: Antipseudomonal activity against pseudomonas aeruginosa PAO deltadacBdeltaampD assessed as AmpC RNA expression by RT-PCR analysis Pseudomonas aeruginosa PAO1
Pseudomonas aeruginosa [14] = test: Antibacterial activity against Pseudomonas aeruginosa PAO1 deltaC+pUCP-(PDC-1) by broth microdilution method
Pseudomonas aeruginosa [15] = test: Antipseudomonal activity against Pseudomonas aeruginosa PAO1 deltadacB assessed as AmpC RNA expression by RT-PCR analysis relative to Pseudomonas aeruginosa PAO1
Pseudomonas aeruginosa [16] = test: Antipseudomonal activity against pseudomonas aeruginosa PAO deltadacBdeltadacC assessed as AmpC RNA expression by RT-PCR analysis relative to Pseudomonas aeruginosa PAO1
Pseudomonas aeruginosa [17] = test: Antibacterial activity against Pseudomonas aeruginosa PAO1 by broth microdilution method
Pseudomonas aeruginosa [18] = test: Antibacterial activity against PAOdeltaC by broth microdilution method
Pseudomonas aeruginosa [19] = test: Antibacterial activity against Pseudomonas aeruginosa PAO1 deltadacBdeltapbpGdeltadacC by broth microdilution method
Pseudomonas aeruginosa [20] = test: Antibacterial activity against Pseudomonas aeruginosa PAO1 23/14-053 (ST-309) by broth microdilution method
Pseudomonas aeruginosa [21] = test: Antipseudomonal activity against pseudomonas aeruginosa PAO deltaDdeltsDh2deltaDh3 assessed as AmpC RNA level relative to Pseudomonas aeruginosa PAO1
Pseudomonas aeruginosa [22] = test: Antipseudomonal activity against pseudomonas aeruginosa Pseudomonas aeruginosa 13/09-018 (ST-175) assessed as AmpC RNA level relative to Pseudomonas aeruginosa PAO1
Pseudomonas aeruginosa [23] = test: Antibacterial activity against Pseudomonas aeruginosa PAO1 6/04-224 (ST-175) by broth microdilution method
Pseudomonas aeruginosa [24] = test: Antipseudomonal activity against pseudomonas aeruginosa PAOdeltaC AmpC RNA level assessed as AmpC RNA level relative to Pseudomonas aeruginosa PAO1
Pseudomonas aeruginosa [25] = test: Antibacterial activity against Pseudomonas aeruginosa PAO1 17/14-017 (ST-235) by broth microdilution method
Pseudomonas aeruginosa [26] = test: Antipseudomonal activity against pseudomonas aeruginosa PAO1 AmpC RNA level assessed as AmpC RNA level relative to Pseudomonas aeruginosa PAO1
Pseudomonas aeruginosa [27] = test: Antibacterial activity against Pseudomonas aeruginosa PAO1 53/22-113 (ST-244) by broth microdilution method
Pseudomonas aeruginosa [28] = test: Antibacterial activity against Pseudomonas aeruginosa PAO1 PAHUAC-27(ST-22) by broth microdilution method
Pseudomonas aeruginosa [29] = test: Antibacterial activity against Pseudomonas aeruginosa PAO1 deltaampD by broth microdilution method
Pseudomonas aeruginosa [30] = test: Antipseudomonal activity against pseudomonas aeruginosa Pseudomonas aeruginosa 6/04-224 (ST-175) assessed as AmpC RNA level relative to Pseudomonas aeruginosa PAO1
Pseudomonas aeruginosa [31] = test: Antibacterial activity against Pseudomonas aeruginosa PAO1 36/14-210 (ST-235) by broth microdilution method
Pseudomonas aeruginosa [32] = test: Antibacterial activity against Pseudomonas aeruginosa PAO1 deltadacBdeltaampD by broth microdilution method
Pseudomonas aeruginosa [33] = test: Antipseudomonal activity against pseudomonas aeruginosa PAO deltadacBdeltapbpGdeltadacC assessed as AmpC RNA level relative to Pseudomonas aeruginosa PAO1
Pseudomonas aeruginosa [34] = test: Antipseudomonal activity against pseudomonas aeruginosa Pseudomonas aeruginosa PAHUAC-27(ST-22) assessed as AmpC RNA level relative to Pseudomonas aeruginosa PAO1
Pseudomonas aeruginosa [35] = test: Antibacterial activity against Pseudomonas aeruginosa PAO1 deltaDdeltsDh2deltaDh3 by broth microdilution method
Pseudomonas aeruginosa [36] = test: Antipseudomonal activity against pseudomonas aeruginosa Pseudomonas aeruginosa 23/14-053 (ST-309) assessed as AmpC RNA level relative to Pseudomonas aeruginosa PAO1

SMILES: CC(C)(O/N=C(\C(=O)N[C@@H]1C(=O)N2C(C(=O)[O-])=C(C[n+]3ccccc3)CS[C@H]12)c1csc(N)n1)C(=O)O [CEFTAZIDIME]
- MIC (Pseudomonas aeruginosa [1]): 64 µg/mL (≈ 117 µM)
- MIC (Pseudomonas aeruginosa [2]): 16 µg/mL (≈ 29.3 µM)
- MIC (Pseudomonas aeruginosa [3]): 16 µg/mL (≈ 29.3 µM)
- fold change (FC) (Pseudomonas aeruginosa [4]): 1415.3
- fold change (FC) (Pseudomonas aeruginosa [5]): 32.8
- fold change (FC) (Pseudomonas aeruginosa [6]): 4084.8
- fold change (FC) (Pseudomonas aeruginosa [7]): 51.4
- MIC (Pseudomonas aeruginosa [8]): 8 µg/mL (≈ 14.6 µM)
- fold change (FC) (Pseudomonas aeruginosa [9]): 18.6
- fold change (FC) (Pseudomonas aeruginosa [10]): 1933.4
- fold change (FC) (Pseudomonas aeruginosa [11]): 586.3
- MIC (Pseudomonas aeruginosa [12]): 16 µg/mL (≈ 29.3 µM)
- fold change (FC) (Pseudomonas aeruginosa [13]): 1021.4
- MIC (Pseudomonas aeruginosa [14]): 16 µg/mL (≈ 29.3 µM)
- FC (Pseudomonas aeruginosa [15]): 36 µg/mL
- fold change (FC) (Pseudomonas aeruginosa [16]): 472.3
- MIC (Pseudomonas aeruginosa [17]): 1 µg/mL (≈ 1.83 µM)
- MIC (Pseudomonas aeruginosa [18]): 1 µg/mL (≈ 1.83 µM)
- MIC (Pseudomonas aeruginosa [19]): 16 µg/mL (≈ 29.3 µM)
- MIC (Pseudomonas aeruginosa [20]): 8 µg/mL (≈ 14.6 µM)
- fold change (FC) (Pseudomonas aeruginosa [21]): 1030.2
- fold change (FC) (Pseudomonas aeruginosa [22]): 2.4
- MIC (Pseudomonas aeruginosa [23]): 32 µg/mL (≈ 58.5 µM)
- fold change (FC) (Pseudomonas aeruginosa [24]): 0
- MIC (Pseudomonas aeruginosa [25]): 16 µg/mL (≈ 29.3 µM)
- fold change (FC) (Pseudomonas aeruginosa [26]): 1
- MIC (Pseudomonas aeruginosa [27]): 64 µg/mL (≈ 117 µM)
- MIC (Pseudomonas aeruginosa [28]): 32 µg/mL (≈ 58.5 µM)
- MIC (Pseudomonas aeruginosa [29]): 16 µg/mL (≈ 29.3 µM)
- fold change (FC) (Pseudomonas aeruginosa [30]): 10.1
- MIC (Pseudomonas aeruginosa [31]): 128 µg/mL (≈ 234 µM)
- MIC (Pseudomonas aeruginosa [32]): 32 µg/mL (≈ 58.5 µM)
- fold change (FC) (Pseudomonas aeruginosa [33]): 1109.9
- fold change (FC) (Pseudomonas aeruginosa [34]): 326.4
- MIC (Pseudomonas aeruginosa [35]): 32 µg/mL (≈ 58.5 µM)
- fold change (FC) (Pseudomonas aeruginosa [36]): 6.4
